From patent US9789127B2, “N-acyl-phosphatidyl-ethanolamines and/or mixtures of N-acyl-ethanolamines with phosphatidic acids or lysophosphatidic acids” (HUNZA DI PISTOLESI ELVIRA & C. S.A.S., priority 2003, dated 2017) come the findings set out here.

For one assay, the system named is ghost erythrocytes. Put plainly: Membrane fluidity of ghost erythrocytes (TMA-DPH fluorescent probe) of rats on a high-calorie, high-fat, high-cholesterol diet. It is filed as in vivo, rat. The settings on record: expressed as a % of the control values at time 0; rats after 20 day diet treatment, substance in the diet. Here is the method:
(§1) In the experimental tests, the rats were given a high-calorie, high-triglyceride, high-cholesterol diet. The following parameters were evaluated after twenty days treatment: • 1) effect of the compositions on the lipoperoxide levels in the plasma, liver, brain and heart; • 2) effect of the compositions on variations in body weight; • 3) effect of the compositions on variations in membrane fluidity of ghost erythrocytes and plasma platelets; • 4) effect of the compositions on the functionality of the hepatic mitochondria, evaluated by measuring: a) O2 consumption; b) reduced glutathione; c) the potential of the mitochondrial membranes; • 5) effect of the compositions on plasma levels of total cholesterol and HDL-cholesterol; • 6) effect of the compositions on plasma levels of total triglycerides.
(§2) 80 Male rats weighing 150-200 g each were used. […] The animals were given the same diet as the controls for 20 days, except that 50 mg of NOPE and 25 mg of B.F. (corresponding to ˜75 mg of the preparation described in example 6) replaced the same quantity of olive oil (olive oil used: 4.825%). • 7th group: treated with green tea bioflavones (B.F.). The animals were given the same diet as the controls for 20 days, except that 25 mg of B.F. replaced the same quantity of olive oil (olive oil used: 4.875%). […]

For the next assay, the system named is plasma platelets. Nature of the assay: Membrane fluidity of plasma platelets (TMA-DPH fluorescent probe) of rats on a high-calorie, high-fat, high-cholesterol diet. Format: in vivo, rat. The settings on record: expressed as a % of the control values at time 0; rats after 20 day diet treatment, substance in the diet. Here is the method: as §1, §2
The test system of assay [1] is lipoperoxide levels (malonyldialdehyde, MDA). Put plainly: Lipoperoxide levels (malonyldialdehyde) in plasma, liver, brain and heart of rats on the diet. It is filed as in vivo, rat. The settings on record: rats after 20 day diet treatment. Here is the method:
as §1
(§3) 80 Male rats weighing 150-200 g each were used. The animals were divided into 8 groups of 10 animals: • 1st group: control (C); 10 animals (control at time 0) were used as is, and 10 were given a standard high-calorie, high-fat, high-cholesterol diet for 20 days, consisting of: • casein: 20%; mixture of trace elements and mineral salts: 3.5%; mixture of vitamins: 0.1%; choline bitartrate: 0.2%; cellulose: 2%; cholesterol: 0.5%; sodium cholate: 0.25%; saccharose: 58.44%, lard: 10.0% and olive oil: 4.9%. • 2nd group: treated with N-oleoyl-ethanolamine as such (NOE); the animals were given the same diet as the controls for 20 days, except that 50 mg of NOE replaced the same quantity of olive oil (olive oil used: 4.85%). • 3rd group: treated with N-oleoyl-phosphatidylethanolamine prepared as described in example 1 (NOPE); the animals were given the same diet as the controls for 20 days, except that 50 mg of NOPE (prepared as described in example 1) replaced the same quantity of olive oil (olive oil used: 4.85%). • 4th group: treated with N-oleoyl-ethanolamine+phosphatidic acid prepared as described in example 2: (NOE+PA); the animals were given the same diet as the controls for 20 days, except that 400 mg of the preparation described in example 2 (containing ˜50 mg of NOE and 150 mg of PA) replaced the same quantity of olive oil (olive oil used: 4.50%). • 5th group: treated with N-oleoyl-ethanolamine+lysophosphatidic acid prepared as described in example 3: (NOE+LPA); the animals were given the same diet as the controls for 20 days, except that 150 mg of the preparation described in example 3 (containing ˜50 mg of NOE and 100 mg of LPA) replaced the same quantity of olive oil (olive oil used: 4.75%). • 6th group: treated with “phosphobioflavonic complexes” of N-oleoyl-phosphatidylethanolamine and green tea bioflavones (B.F.) prepared as described in example 6 (NOPE+B.F.). The animals were given the same diet as the controls for 20 days, except that 50 mg of NOPE and 25 mg of B.F. (corresponding to ˜75 mg of the preparation described in example 6) replaced the same quantity of olive oil (olive oil used: 4.825%). • 7th group: treated with green tea bioflavones (B.F.). The animals were given the same diet as the controls for 20 days, except that 25 mg of B.F. replaced the same quantity of olive oil (olive oil used: 4.875%).
Malonyldialdehyde is assayed in accordance with the procedure described by K. Yagi et al., 1982, in “Lipid Peroxides in Biology and Medicine”, Academic Press, New York, 99.324-340.

Assay [2] in a line: Plasma total cholesterol, HDL cholesterol and triglyceride levels of rats on the diet. Format: in vivo, rat. The settings on record: rats after 20 day diet treatment. On the procedure:
as §1, §3

A short description of assay [3]: Variation in body weight of rats on the diet. It is filed as in vivo, rat. The conditions noted are these: rats after 20 day diet treatment. Here is the method: as §1
(§4) 80 Male rats weighing 150-200 g each were used. […] The animals were given the same diet as the controls for 20 days, except that 50 mg of NOPE and 25 mg of B.F. (corresponding to ˜75 mg of the preparation described in example 6) replaced the same quantity of olive oil (olive oil used: 4.825%). • 7th group: treated with green tea bioflavones (B.F.). The animals were given the same diet as the controls for 20 days, except that 25 mg of B.F. replaced the same quantity of olive oil (olive oil used: 4.875%).

For assay [4], the system named is hepatic mitochondria. Nature of the assay: Functionality of hepatic mitochondria: hepatocellular O2 consumption. It is filed as in vivo, rat. The conditions noted are these: rats after 20 day diet treatment. On the procedure: as §1, §2
Assay [5] relates to hepatic mitochondria. Nature of the assay: Functionality of hepatic mitochondria: reduced hepatocellular glutathione content. Format: in vivo, rat. The settings on record: rats after 20 day diet treatment. On the procedure:
as §1, §2

The subject of assay [6] is hepatic mitochondria. Nature of the assay: Functionality of hepatic mitochondria: mitochondrial membrane potential. Format: in vivo, rat. The conditions noted are these: control rats at time 0 = 100%; rats after 20 day diet treatment. Here is the method:
as §1, §2

Assay [7] can be described thus: Experimental tests on rats, 20 day diet treatment: overall assessment of Tables I-IV. It is filed as in vivo, rat. The conditions noted are these: oral administration, 20 days. Here is the method: as §1, §4
Assay [8] in a line: Diet treatment tests carried out on man. Format: in vivo. The conditions noted are these: oral administration. From the text:
A series of experimental tests on rats and clinical tests on man have been carried out to study the pharmacological and/or dietetic characteristics of the composition of the invention.
In all the diet treatment tests carried out on man, the effects obtainable by orally the formulations claimed by the invention (NAPE; NAE+PA; NAE+LPA; NAPE+B.F. and NAE plus PA and/or LPA+B.F.) always provided highly significant results and advantages, both in preventing biological signs of aging (improvement in mitochondrial activity, better membrane fluidity, improvement in plasma antioxidant defences, and limited weight increase) and improving the clinical parameters tested in relation to prevention of aging, and many of the metabolic disorders associated therewith.

Consider `CCCCCCCC/C=C\CCCCCCCC(=O)NCCO` [NOE, N-oleoyl-ethanolamine], for which, in the assay with ghost erythrocytes, the “Membrane fluidity (ghost erythrocytes)” value turned out to be 72%. The “Membrane fluidity (plasma platelets)” value in the assay on plasma platelets worked out at 70%. For the same compound, in assay [1], the “MDA BRAIN” value was 106 ± 7 nmoles of malonyldialdehyde (MDA) per gram of tissue, the “MDA HEART” value is listed as 44 ± 9 nmoles of malonyldialdehyde (MDA) per gram of tissue, the “MDA LIVER” value was 44.1 ± 8.2 nmoles of malonyldialdehyde (MDA) per gram of tissue and the “MDA PLASMA” value is on record as 5.0 ± 0.6 nmoles of malonyldialdehyde (M. Moreover, in assay [2], the HDL cholesterol is 28.9 ± 2.8 mg/dL, the Total cholesterol was 120.4 ± 12.7 mg/dL and the Total triglycerides is 80.5 ± 6.8 mg/dL. This compound registered a Body weight in assay [3] of 221 ± 16 gm. The “Hepatocellular O2 consumption” value in the assay with hepatic mitochondria [4] was 368 ± 52 umoles O2/min per 10^7 cells. The compound further yielded a Reduced glutathione in the assay with hepatic mitochondria [5] of 36 ± 6 nmoles × 10^6 cells. Besides, the Mitochondrial membrane potential with hepatic mitochondria [6] is 70%. Further, in [7], the “Statistical significance of the effects of Tables I-IV (membrane fluidity, antioxidant defences, body weight, cholesterol and triglycerides, mitochondria)” value is given as “no statistically significant benefit”. In assay [8], the “Benefit in preventing biological signs of aging and improving clinical parameters” value is on record as “no significant benefit”.

Take “N-oleoyl-phosphatidylethanolamine [NOPE]”: the “Membrane fluidity (ghost erythrocytes)” value with ghost erythrocytes was determined as 84%. In addition, in the assay with plasma platelets, the “Membrane fluidity (plasma platelets)” value came out at 81%. Further, in assay [1], the “MDA BRAIN” value was 85 ± 9 nmoles of malonyldialdehyde (MDA) per gram of tissue, the “MDA HEART” value is listed as 32 ± 7 nmoles of malonyldialdehyde (MDA) per gram of tissue, the “MDA LIVER” value is 33.1 ± 6.5 nmoles of malonyldialdehyde (MDA) per gram of tissue and the “MDA PLASMA” value is given as 3.8 ± 0.4 nmoles of malonyldialdehyde (M. In assay [2], this compound yielded an HDL cholesterol of 31.6 ± 3.9 mg/dL, a Total cholesterol of 110.3 ± 10.1 mg/dL and a Total triglycerides of 71.4 ± 8.7 mg/dL. In addition, in assay [3], the Body weight is on record as 209 ± 18 gm. Moreover, the “Hepatocellular O2 consumption” value in the assay on hepatic mitochondria [4] is recorded as 408 ± 62 umoles O2/min per 10^7 cells. Further, the Reduced glutathione with hepatic mitochondria [5] is listed as 41 ± 5 nmoles × 10^6 cells. The compound further yielded a Mitochondrial membrane potential in the assay on hepatic mitochondria [6] of 81%. In addition, the “Statistical significance of the effects of Tables I-IV (membrane fluidity, antioxidant defences, body weight, cholesterol and triglycerides, mitochondria)” value in [7] is on record as “always statistically significant”.
